Results taken from patent US9944967B2, “Methods for the site-selective introduction of halogen into natural products” (THE REGENTS OF THE UNIVERSITY OF CALIFORNIA, priority 2013, dated 2018).

Assays:
[1] = tested on: DEBSMod6+TE; test: Triketide lactone production under competitive conditions; assay type: biochemical
Experimental: For reactions with substrate regeneration, assay mixtures contained 400 mM sodium phosphate, pH 7.5, phosphoenolpyruvate (50 mM), TCEP (5 mM), magnesium chloride (10 mM), ATP (2.5 mM), pyruvate kinase (27 U/mL), myokinase (10 U/mL), methylmalonyl-CoA epimerase (5 μM), NDK-SNAC (15 mM) and DEBSMod6+TE (10 μM). Reactions were initiated by simultaneous addition of MatB (40 μM), fluoromalonyl-CoA (1 μM) and malonyl-CoA (1 μM) and incubated at 37° C. for 18-20 h. Protein was removed by filtration through a 3 kDa NWCO membrane at 14,000×g and the filtrate was analyzed by LC-MS. Standards of H-TKL and F-TKL were prepared using a mock reaction mixture (acyl-CoAs replaced by CoAs and NDK-SNAC replaced by N-acetyl cysteamine) as diluent. TKLs were quantified using single ion monitoring, H-TKL in positive mode and F-TKL in negative mode. For reactions without substrate regeneration, assay mixtures contained 400 mM sodium phosphate, pH 7.5, TCEP (5 mM), methylmalonyl-CoA epimerase (5 μM), NDK-SNAC (3 mM) and DEBSMod6+TE (10 μM). Reactions were initiated by adding fluoromalonyl-CoA (1 mM) and malonyl-CoA (1 mM) simultaneously. The mixtures were incubated at 37° C. for 20 h, then quenched, processed and analyzed as described above. H-TKL was monitored using an Agilent 6130 MS operating in positive ion mode, and the limit of detection was verified by spiking samples to 50 nM H-TKL using a standard solution.

[2] = tested on: DEBSMod6+TE; test: Time-course of TKL and F-TKL formation by DEBSMod6+TE with substrate regeneration; assay type: biochemical
Experimental: Assay and preparative mixtures contained 400 mM sodium phosphate, pH 7.5, phosphoenolpyruvate (50 mM), TCEP (5 mM), magnesium chloride (10 mM), ATP (2.5 mM), pyruvate kinase (27 U/mL), myokinase (10 U/mL), CoA (0.5 mM), methylmalonyl-CoA epimerase (5 μM), MatB (40 μM or as specified) and fluoro- or methylmalonate (10-20 mM). […] This mixture was incubated at 37° C. for 30-45 min and then initiated by addition of the N-acetylcysteamine thioester of (2S,3R)-2-methyl-3-hydroxypentanoic acid (NDK-SNAC, 1-10 mM) (Cane, D. E., et al., J. Am. Chem., 115:527-535 (1993)) and DEBSMod6+TE (10 μM). Aliquots (35 μL) were removed and quenched by addition of 70% perchloric acid (1.75 μL). […] The supernatant was removed and analyzed on a Zorbax Eclipse XDB C-18 column (3.5 μm, 3×150 mm, 35° C., Agilent) using a linear gradient from 0 to 40% acetonitrile over 14 min with 0.1% formic acid as the aqueous mobile phase after an initial hold at 0% acetonitrile for 30 s (0.8 mL/min) Products were monitored using an Agilent G1315D diode array detector (TKL, A260 nm or A275 nm, F-TKL, A247 nm, NDK-SNAC; A260 nm). […] For absolute quantification, each analyte was compared to an external standard curve. […] The concentrations of TKL and H-TKL were determined by ^1H NMR in D2O using the ERETIC method against an external standard of diethylfluoromalonate (75 mM).

[3] = target: T1, DEBSMod2/AT^0 (Saccharopolyspora erythraea, UniProt Q03131, S2598A); test: Triketide lactone production using DEBSMod2/AT0; assay type: biochemical; settings: overnight; for conversion of NDK-SNAC to R-TKL: NDK-SNAC (500 μM), respective acyl-CoA regeneration system
T1 construct: MBP (N); His6 (C); His6 (N); made in house; host or cells: E. coli BAP1 (pRARE2 co-expressed)
Experimental: All assay mixtures contained 400 mM sodium phosphate, pH 7.5, phosphoenolpyruvate (20 mM), TCEP (5 mM), magnesium chloride (5 mM), ATP (2.5 mM), pyruvate kinase (18 U/mL), myokinase (10 U/mL), methylmalonyl-CoA epimerase (5 μM), CoA (1 mM), MatB (20 μM), NDK-SNAC (500 μM) and either methylmalonate, fluoromalonate or malonate (5 mM) as appropriate. Reactions were initiated by addition of DEBSMod2/AT^0 (10 μM) and incubated at 37° C. overnight. Aliquots were removed, quenched by addition of HCl to 1 M, then processed and analyzed as described above.

[4] = target: T2, acetyl-CoA carboxylase (ACCase) (Escherichia coli, UniProt P0A9Q5+P0ABD5); test: Acetyl-CoA carboxylase discontinuous HPLC assay with AckA-Pta; assay type: biochemical, E. coli
T2 construct: made in house; host or cells: E. coli BL21(de3)T1R
Experimental: ACCase activity was measured using a discontinuous HPLC assay. Assays were performed at 30° C. in a total volume of 200 μL containing 50 mM HEPES, pH 7.5, TCEP (10 mM), bovine serum albumin (3 mg/mL), CoA (0.5 mM), ATP (2.5 mM), magnesium chloride (10 mM), sodium bicarbonate (75 mM), acetate or fluoroacetate (10 mM), phosphoenolpyruvate (10 mM), pyruvate kinase (4 U), AckA (0.1 μM), Pta (10 μM) and ACCase (15 μM). The pH of the buffer remained unchanged after addition of sodium bicarbonate. ACCase stock solution was prepared by pre-mixing the protein subunits at equimolar ratio (85 μM) except for AccB, which was added at 1.5-fold molar excess. The reaction was initiated with addition of ATP. Aliquots (20 μL) were removed and quenched by the addition of 70% perchloric acid (1 μL). Insoluble material was removed by centrifugation and the supernatant was analyzed on an Agilent 1200 or 1290 HPLC system on a LiChroCART 250-4 Purospher RP-18e column (5 μm, 4.6×250 mm, Millipore) and monitored at A260 nm. For reactions with acetate, a linear gradient from 2 to 20% acetonitrile over 10 min with 5 mM sodium phosphate and 5 mM sodium citrate with 0.1% trifluoroacetic acid, pH 4.6 as the aqueous mobile phase (1 mL/min) was used to analyze the reaction. […]

[5] = target: T3, DEBSMod6+TE (Saccharopolyspora erythraea, UniProt Q03133); test: Acyl-CoA hydrolysis by DEBSMod6+TE (DTNB assay); assay type: biochemical; settings: for v0 (rate of acyl-CoA hydrolysis): DEBSMod6 + TE (1 μM), acyl-CoA (500 μM), mean ± s.d. (n = 4); for Relative rate of acyl-CoA hydrolysis: relative to methylmalonyl-CoA
T3 construct: the sixth module of DEBS, including the terminal thioesterase (DEBSMod6+TE); His6 (C); made in house; host or cells: E. coli BAP1
Experimental: Hydrolytic activity of DEBSMod6+TE was measured by monitoring the reaction of free CoA with DTNB as described previously (Huang, F., et al., Chem. Biol., 13:475-484 (2006)). Assays were performed at 37° C. in a total volume of 200 μL containing 400 mM sodium phosphate, pH 7.5, 500 μM DTNB, and DEBSMod6+TE (1 μM). Reactions were initiated by addition of acyl-CoA (0.5 mM) and monitored at 412 nm in a Beckman Coulter DU-800 spectrophotometer. Release of CoA was quantified by comparison to a standard curve (5-100 μM).

[6] = target: T4, NphT7 (Streptomyces sp., UniProt D7URV0); test: Acetoacetyl-CoA synthase NphT7 NADPH-coupled assay with PhaB; assay type: biochemical; settings: NphT7 reaction product
T4 construct: made in house; host or cells: E. coli BL21(de3)T1R
T4 sequence (D7URV0 1-329): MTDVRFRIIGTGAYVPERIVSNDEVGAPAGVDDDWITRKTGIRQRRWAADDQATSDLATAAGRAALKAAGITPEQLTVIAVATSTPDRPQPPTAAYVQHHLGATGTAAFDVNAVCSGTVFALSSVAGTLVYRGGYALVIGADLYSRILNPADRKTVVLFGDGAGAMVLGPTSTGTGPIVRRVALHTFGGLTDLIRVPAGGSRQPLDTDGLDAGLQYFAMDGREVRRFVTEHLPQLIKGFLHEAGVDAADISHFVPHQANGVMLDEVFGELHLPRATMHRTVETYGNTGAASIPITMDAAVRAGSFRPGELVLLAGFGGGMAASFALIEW
Experimental: NphT7 activity was measured using a NADPH-coupled assay with PhaB. Assays were performed at 30° C. in a total volume of 500 μL containing 50 mM HEPES, pH 7.5, NADPH (160 μM), acetyl-CoA (200 μM), PhaB (0.05 mg/mL), NphT7 (0.2 μM for malonyl-CoA; 0.5 μM for fluoromalonyl-CoA) and malonyl-CoA (5-150 μM) or fluoromalonyl-CoA (5-200 μM). Reactions were initiated with the addition of malonyl- or fluoromalonyl-CoA and monitored at 340 nm in an Agilent 8453 diode array spectrophotometer. The PhaB-coupled assay was tested both by doubling NphT7, which doubled the initial velocity with both the fluorinated and non-fluorinated substrates, and also by doubling the amount of PhaB, which led to no difference in initial velocity.

[7] = MatB regeneration, equimolar malonyl-CoA and fluoromalonyl-CoA, mean ± s.d. (n = 3)

CC[C@H]1OC(=O)[C@@H](F)C(=O)[C@H]1C [F-TKL, (2S,4S,5R)-2-fluoro-4-methyl-3-oxo-5-hydroxy-n-heptanoic Acid δ-lactone]
[F-TKL]/[H-TKL] ([1]; MatB regeneration): 10.3 ± 0.1
[F-TKL] [1, 7]: 7,390 ± 520 nM
[F-TKL]/[H-TKL] ([1]; No regeneration): >9
[F-TKL] ([1]; No regeneration, equimolar malonyl-CoA and fluoromalonyl-CoA (1 mM), mean ± s.d. (n = 3)): 450 ± 60 nM
fold more F-TKL than H-TKL produced ([1]; direct competition, equimolar (1 mM) fluoromalonyl-CoA and malonyl-CoA): at least 10 fold
Initial rate of F-TKL formation ([2]; 10 mM NDK-SNAC): 0.14 h⁻¹
conversion of NDK-SNAC to R-TKL [3]: 43%

O=C(O)CF [Fluoroacetate, reference compound]
fold slower rate of conversion compared to acetate ([4]; one-pot AckA-Pta/ACCase carboxylation): 4.5 fold

CCC1OC(=O)CC(O)C1C (stereo not drawn) [H-TKL, 2-desmethyltriketide lactone, reference compound]
[H-TKL] [1, 7]: 720 ± 50 nM
[H-TKL] ([1]; No regeneration, equimolar malonyl-CoA and fluoromalonyl-CoA (1 mM)): <50 nM
conversion of NDK-SNAC to R-TKL [3]: < 0.01%

CC(C)(COP(=O)(O)OP(=O)(O)OC[C@H]1O[C@@H](n2cnc3c(N)ncnc32)[C@H](O)[C@@H]1OP(=O)(O)O)[C@@H](O)C(=O)NCCC(=O)NCCSC(=O)CC(=O)O [Malonyl-CoA]
v0 (rate of acyl-CoA hydrolysis) [5]: 6.1 ± 0.4 µM/min
Relative rate of acyl-CoA hydrolysis [5]: 4.5

CC(C(=O)O)C(=O)SCCNC(=O)CCNC(=O)[C@H](O)C(C)(C)COP(=O)(O)OP(=O)(O)OC[C@H]1O[C@@H](n2cnc3c(N)ncnc32)[C@H](O)[C@@H]1OP(=O)(O)O (stereo partly drawn) [Methylmalonyl-CoA]
v0 (rate of acyl-CoA hydrolysis) [5]: 1.36 ± 0.05 µM/min
Relative rate of acyl-CoA hydrolysis [5]: 1.0

CC[C@@H](O)[C@H](C)C(=O)SCCNC(C)=O [NDK-SNAC, (2S,3R)-2-methyl-3-hydroxypentanoyl-N-acetylcysteamine thioester]
NDK-SNAC consumed ([3]; fluoromalonyl-CoA regeneration system): 82%
NDK-SNAC consumed ([3]; malonyl-CoA regeneration system): 100%

CC[C@H]1OC(=O)[C@H](C)C(=O)[C@H]1C [TKL, (2R,4S,5R)-2,4-Dimethyl-3-oxo-5-hydroxy-n-heptanoic acid β-lactone, reference compound]
Initial rate of TKL formation ([2]; 2.5 mM NDK-SNAC): 1.5 min⁻¹
conversion of NDK-SNAC to R-TKL [3]: all

CC(=O)C(F)C(=O)SCCNC(=O)CCNC(=O)[C@H](O)C(C)(C)COP(=O)(O)OP(=O)(O)OC[C@H]1O[C@@H](n2cnc3c(N)ncnc32)[C@H](O)[C@@H]1OP(=O)(O)O (stereo partly drawn) [acetofluoroacetyl-CoA]
stability under the assay conditions [6]: degrade fairly rapidly

CC(C)(COP(=O)(O)OP(=O)(O)OC[C@H]1O[C@@H](n2cnc3c(N)ncnc32)[C@H](O)[C@@H]1OP(=O)(O)O)[C@@H](O)C(=O)NCCC(=O)NCCSC(=O)CF [fluoroacetyl-CoA]
covalent inactivation of the ACCase ([4]; judged from overall extent of reaction): not significant
